Results: US20220259202A1, “1-(4-(AMINOMETHYL)BENZYL)-2-BUTYL-2H-PYRAZOLO[3,4-C]QUINOLIN-4-AMINE DERIVATIVES AND RELATED COMPOUNDS AS TOLL-LIKE RECEPTOR (TLR) 7/8 AGONISTS, AS WELL AS ANTIBODY DRUG CONJUGATES THEREOF FOR USE IN CANCER THERAPY AND DIAGNOSIS” (SUTRO BIOPHARMA, INC., priority 2019, published 2022)
pEC50: −log10 of the molar value.

Tests used:
Assay in all cases: HEK293 SEAP reporter assay, other TLRs (Biological Example 3)
Type in all cases: cell-based
Settings in all cases: 16 hrs, up to 1 μM
human TLR4 = target: T1, human TLR4 (Homo sapiens, UniProt O00206+Q9Y6Y9)
T1 construct: host or cells: HEK293
T1 sequence (O00206 24-839): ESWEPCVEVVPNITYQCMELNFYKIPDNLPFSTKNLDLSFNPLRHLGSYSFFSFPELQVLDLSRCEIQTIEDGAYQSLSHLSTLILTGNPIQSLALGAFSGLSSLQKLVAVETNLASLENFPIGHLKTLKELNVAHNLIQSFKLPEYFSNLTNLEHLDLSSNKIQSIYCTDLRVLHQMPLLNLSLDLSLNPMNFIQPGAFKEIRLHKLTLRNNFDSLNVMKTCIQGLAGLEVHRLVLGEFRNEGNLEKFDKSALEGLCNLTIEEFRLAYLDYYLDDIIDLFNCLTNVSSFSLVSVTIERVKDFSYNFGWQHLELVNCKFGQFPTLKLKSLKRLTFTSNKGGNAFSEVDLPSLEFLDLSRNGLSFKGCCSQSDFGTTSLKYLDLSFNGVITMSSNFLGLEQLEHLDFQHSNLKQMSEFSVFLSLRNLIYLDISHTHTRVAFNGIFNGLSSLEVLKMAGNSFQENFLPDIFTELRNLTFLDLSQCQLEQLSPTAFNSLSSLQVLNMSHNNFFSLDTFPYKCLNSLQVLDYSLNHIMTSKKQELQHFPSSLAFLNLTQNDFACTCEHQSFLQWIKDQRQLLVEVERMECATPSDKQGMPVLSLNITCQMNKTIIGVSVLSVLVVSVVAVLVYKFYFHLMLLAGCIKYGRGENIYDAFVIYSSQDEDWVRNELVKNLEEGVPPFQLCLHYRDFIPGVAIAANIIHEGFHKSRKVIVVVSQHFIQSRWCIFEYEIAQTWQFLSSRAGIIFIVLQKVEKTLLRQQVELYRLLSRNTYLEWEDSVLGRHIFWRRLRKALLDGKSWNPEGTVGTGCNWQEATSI
T1 sequence (Q9Y6Y9 17-160 limits assumed): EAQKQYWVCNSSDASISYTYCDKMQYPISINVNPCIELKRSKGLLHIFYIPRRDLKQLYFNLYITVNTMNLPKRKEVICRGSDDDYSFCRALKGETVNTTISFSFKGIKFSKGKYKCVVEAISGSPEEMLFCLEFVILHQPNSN
Excerpt: (§1) In this example, the activity of the Compound 1 to stimulate different human and mouse TLR pathways was investigated on HEK293 cells transfected with inducible SEAP (secreted embryonic alkaline phosphatase) reporter genes and also expressing different human TLRs (TLR2, TLR3, TLR4, TLR5, TLR7, TLR8, TLRS) or mouse TLRs (TLR2, TLR3, TLR4, TLR5, TLR7, TLR8, TLR13). Compound A
(§2) HEK293 reporter cell lines were purchased from Invivogen and cell lines were maintained in manufacture recommended culture medium with required supplemental antibiotics. On the day of assay, the cells were harvested with Accutase and counted by the Vi-CELL Cell Viability Analyzers. Cells were re-suspended in HEK blue detection medium and a total of 10000 cells were seeded in each well of a 384-well flat bottom plate. […] Assay plates were cultured at 37° C. in a CO2 incubator for 16 hrs. HEK-Blue™ Detection medium changes to a purple/blue color in the presence of secreted SEAP, which can be detected by spectrophotometry at 620-655 nm. Data was fitted with non-linear regression analysis, using a log(inhibitor) vs. response-variable slope, 3-parameter fit with GraphPad Prism.

human TLR5 = target: T2, human TLR5 (Homo sapiens, UniProt O60602)
T2 construct: host or cells: HEK293
T2 sequence (O60602 21-858): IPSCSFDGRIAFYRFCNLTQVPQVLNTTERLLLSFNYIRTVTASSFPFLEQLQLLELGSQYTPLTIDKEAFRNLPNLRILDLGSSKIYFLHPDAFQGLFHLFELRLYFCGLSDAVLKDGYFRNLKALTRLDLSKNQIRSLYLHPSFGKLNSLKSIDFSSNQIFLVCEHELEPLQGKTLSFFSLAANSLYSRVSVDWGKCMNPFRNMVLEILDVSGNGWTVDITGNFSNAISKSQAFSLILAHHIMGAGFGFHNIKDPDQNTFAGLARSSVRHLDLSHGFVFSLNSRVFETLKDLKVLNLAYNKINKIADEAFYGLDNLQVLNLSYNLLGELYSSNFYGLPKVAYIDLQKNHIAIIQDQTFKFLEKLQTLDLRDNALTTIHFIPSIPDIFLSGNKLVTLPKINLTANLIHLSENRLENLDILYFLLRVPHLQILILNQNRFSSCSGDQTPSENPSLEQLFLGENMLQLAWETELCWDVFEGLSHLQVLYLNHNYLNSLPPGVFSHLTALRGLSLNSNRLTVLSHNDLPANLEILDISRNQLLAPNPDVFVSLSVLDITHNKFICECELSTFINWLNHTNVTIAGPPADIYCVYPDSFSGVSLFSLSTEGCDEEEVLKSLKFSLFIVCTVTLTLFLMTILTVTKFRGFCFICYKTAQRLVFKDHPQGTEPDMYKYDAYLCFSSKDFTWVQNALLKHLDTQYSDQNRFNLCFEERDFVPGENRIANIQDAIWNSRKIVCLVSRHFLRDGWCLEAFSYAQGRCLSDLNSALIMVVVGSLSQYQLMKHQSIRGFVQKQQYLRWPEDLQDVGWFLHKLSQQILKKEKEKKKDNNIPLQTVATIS
Excerpt: as §1, §2

human TLR3 = target: T3, human TLR3 (Homo sapiens, UniProt O15455)
T3 construct: host or cells: HEK293
T3 sequence (O15455 24-904): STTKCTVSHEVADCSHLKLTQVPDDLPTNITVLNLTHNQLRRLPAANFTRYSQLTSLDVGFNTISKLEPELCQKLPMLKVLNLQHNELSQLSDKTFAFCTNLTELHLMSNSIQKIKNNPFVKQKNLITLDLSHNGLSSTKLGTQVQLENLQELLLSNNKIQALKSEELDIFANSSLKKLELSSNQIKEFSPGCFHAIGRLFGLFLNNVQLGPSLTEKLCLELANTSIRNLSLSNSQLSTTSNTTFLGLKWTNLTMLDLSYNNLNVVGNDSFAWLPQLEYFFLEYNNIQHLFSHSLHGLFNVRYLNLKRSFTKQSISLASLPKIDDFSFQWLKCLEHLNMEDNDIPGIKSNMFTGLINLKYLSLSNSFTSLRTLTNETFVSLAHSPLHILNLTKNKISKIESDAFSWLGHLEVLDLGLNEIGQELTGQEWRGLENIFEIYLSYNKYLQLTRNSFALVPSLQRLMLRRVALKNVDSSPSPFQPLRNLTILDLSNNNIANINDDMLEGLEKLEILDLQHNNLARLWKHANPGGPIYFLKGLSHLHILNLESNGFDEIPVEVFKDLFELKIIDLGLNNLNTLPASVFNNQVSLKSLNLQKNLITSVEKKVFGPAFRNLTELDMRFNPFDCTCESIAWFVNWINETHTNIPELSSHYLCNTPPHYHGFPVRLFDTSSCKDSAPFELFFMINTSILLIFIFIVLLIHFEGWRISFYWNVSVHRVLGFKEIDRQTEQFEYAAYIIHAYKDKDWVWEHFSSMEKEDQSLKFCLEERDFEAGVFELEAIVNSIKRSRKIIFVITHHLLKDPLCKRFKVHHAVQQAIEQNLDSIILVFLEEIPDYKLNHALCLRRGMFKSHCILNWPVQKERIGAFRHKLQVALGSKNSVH
Excerpt: as §1, §2

human TLR9 = target: T4, human TLR9 (Homo sapiens, UniProt Q9NR96)
T4 construct: host or cells: HEK293
T4 sequence (Q9NR96 26-1032): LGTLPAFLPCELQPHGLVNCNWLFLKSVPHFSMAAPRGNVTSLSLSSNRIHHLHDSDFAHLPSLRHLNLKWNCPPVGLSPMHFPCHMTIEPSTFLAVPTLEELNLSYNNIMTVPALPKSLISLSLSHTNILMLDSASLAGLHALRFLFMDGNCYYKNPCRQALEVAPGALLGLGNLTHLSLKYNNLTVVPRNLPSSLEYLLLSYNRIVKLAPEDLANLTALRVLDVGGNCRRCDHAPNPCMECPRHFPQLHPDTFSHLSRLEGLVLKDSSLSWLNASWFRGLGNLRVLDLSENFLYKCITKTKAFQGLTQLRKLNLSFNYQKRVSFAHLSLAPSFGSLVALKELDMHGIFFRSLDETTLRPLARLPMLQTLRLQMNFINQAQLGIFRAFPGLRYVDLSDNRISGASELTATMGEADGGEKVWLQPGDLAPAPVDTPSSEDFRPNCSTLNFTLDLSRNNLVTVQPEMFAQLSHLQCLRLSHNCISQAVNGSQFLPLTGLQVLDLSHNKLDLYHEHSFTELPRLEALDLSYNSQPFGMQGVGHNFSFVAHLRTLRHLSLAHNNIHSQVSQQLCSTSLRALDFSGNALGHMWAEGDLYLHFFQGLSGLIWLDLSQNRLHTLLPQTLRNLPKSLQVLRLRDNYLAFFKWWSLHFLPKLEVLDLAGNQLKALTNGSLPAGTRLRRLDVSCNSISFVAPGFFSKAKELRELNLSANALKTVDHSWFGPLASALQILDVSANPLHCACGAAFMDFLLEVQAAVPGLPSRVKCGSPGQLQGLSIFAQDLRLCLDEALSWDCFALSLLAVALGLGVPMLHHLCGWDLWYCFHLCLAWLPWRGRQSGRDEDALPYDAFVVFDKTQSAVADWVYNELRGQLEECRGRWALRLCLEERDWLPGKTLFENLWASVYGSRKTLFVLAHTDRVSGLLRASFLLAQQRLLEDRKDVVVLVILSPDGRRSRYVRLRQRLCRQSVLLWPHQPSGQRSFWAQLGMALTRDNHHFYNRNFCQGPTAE
Excerpt: as §1, §2

Measured: pEC50

CCCCn1nc2c(N)nc3ccccc3c2c1Cc1ccc(CN)cc1 [Compound 1, 1-(4-(aminomethyl)benzyl)-2-butyl-2H-pyrazolo[3,4-c]quinolin-4-amine]
< 6.00: all assays above

CCCCc1nc2c(N)nc3ccccc3c2n1Cc1ccc(CN)cc1 [Compound A, reference compound]
< 6.00: all assays above
